Counter-ions that a name gives are not always drawn. Like-named read-outs stand apart in the source and are kept apart here.
What was measured:
Androgen AR receptor = target: T1, Androgen AR receptor (Homo sapiens, UniProt P10275); assay: Receptor Selection and Amplification Technology (R-SAT) functional receptor assay; assay type: cell-based; conditions: for Emax: read-out: % Efficacy
T1 construct: expressed in transfected cells; host or cells: NIH3T3 cells
T1 sequence (P10275 1-920): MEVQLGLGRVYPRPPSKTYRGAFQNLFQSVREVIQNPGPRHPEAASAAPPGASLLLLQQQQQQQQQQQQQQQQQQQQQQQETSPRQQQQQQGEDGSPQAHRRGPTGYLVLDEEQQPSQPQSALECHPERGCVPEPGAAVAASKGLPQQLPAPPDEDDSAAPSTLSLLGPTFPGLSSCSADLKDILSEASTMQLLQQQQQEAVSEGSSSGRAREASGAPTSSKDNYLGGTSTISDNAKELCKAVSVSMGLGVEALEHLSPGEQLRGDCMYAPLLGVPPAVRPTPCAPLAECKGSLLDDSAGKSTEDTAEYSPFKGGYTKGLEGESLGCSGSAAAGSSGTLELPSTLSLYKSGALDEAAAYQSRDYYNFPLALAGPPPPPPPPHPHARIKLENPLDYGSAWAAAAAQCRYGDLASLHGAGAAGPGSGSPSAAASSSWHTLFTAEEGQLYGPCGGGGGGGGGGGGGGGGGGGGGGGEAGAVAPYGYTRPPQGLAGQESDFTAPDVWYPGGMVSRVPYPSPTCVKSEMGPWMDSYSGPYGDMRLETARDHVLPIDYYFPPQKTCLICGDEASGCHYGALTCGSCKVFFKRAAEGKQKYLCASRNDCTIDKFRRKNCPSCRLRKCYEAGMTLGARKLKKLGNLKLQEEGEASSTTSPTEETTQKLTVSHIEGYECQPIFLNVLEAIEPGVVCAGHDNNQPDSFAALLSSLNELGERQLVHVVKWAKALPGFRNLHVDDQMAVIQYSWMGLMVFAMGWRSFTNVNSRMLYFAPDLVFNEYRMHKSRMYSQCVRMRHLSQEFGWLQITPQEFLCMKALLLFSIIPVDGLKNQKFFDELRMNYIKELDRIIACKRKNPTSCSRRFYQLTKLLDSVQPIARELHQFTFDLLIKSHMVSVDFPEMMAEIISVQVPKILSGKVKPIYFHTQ
Method: The functional receptor assay, Receptor Selection and Amplification Technology (R-SAT™), was used with minor modifications from the procedure described previously (Brann, M. R., U.S. Pat. No. 5,707,798, which is hereby incorporated herein by reference in its entirety) to screen compounds for efficacy at the Androgen AR receptor. Briefly, NIH3T3 cells were grown in roller bottles to 70-80% confluence. Cells were then transfected for 12-16 h with plasmid DNAs using Polyfect (Qiagen Inc.) as per the manufacturer's protocol. R-SAT assays were typically performed by transfecting 30 ug/bottle of receptor and 50 ug/bottle of β-galactosidase plasmid DNA. All receptor and helper constructs used were in mammalian expression vectors. Helpers are defined as signaling molecules that modulate both ligand-dependent and/or ligand-independent function of the AR receptor, typically co-activators.
NIH3T3 cells were transfected for 12-16 h, then trypsinized and frozen in DMSO. Frozen cells were later thawed, plated at 10,000-40,000 cells per well of a 96 well plate containing drug. Cells were then grown in a humidified atmosphere with 5% ambient CO2 for five days. Media was then removed from the plates and marker gene activity was measured by the addition of the β-galactosidase substrate o-nitrophenyl β-D-galactopyranoside (ONPG, in PBS with 5% NP-40). The resulting colorimetric reaction was measured in a spectrophotometric plate reader (Titertek Inc.) at […]. All data were analyzed using the computer program XLFit (IDBSm).

[1] = test system: Rat luteinizing hormone (LH) plasma levels; assay: In vivo activity in castrated rats: plasma luteinizing hormone (ELISA); conditions: castrated rats (FIG. 4)
Method: (§1) Test compounds of formula I are administered p.o. daily for two weeks to castrated male Sprague Dawley rats (n=3). The effects of the test compounds (1, 3, 10, 30 mg/kg) are compared to testosterone propionate (1 and 3 mg/kg s.c.; positive control) and vehicle (10% Tween80; negative control). Blood and wet weights of prostate gland and seminal vesicle are measured after sacrifice that occurs 24 hours after the last dose. Blood is collected in heparin collection tubes after sacrifice that occurred 24 hours after the last dose. Blood is centrifuged and plasma collected and plasma samples frozen.
Rat luteinizing hormone (LH) plasma levels are determined using an enzyme linked immunoabsorbent assay (ELISA) from Amersham as per manufacturer's instructions. The solid phase assay is based on the competition between unlabeled rLH and a fixed quantity of biotin labelled rLH for a limited amount of rLH specific antibody. A conjugate streptavidin/peroxidase allows for signal amplification and detection in presence of the substrate.

[2] = test system: castrated male Sprague Dawley rats; assay: In vivo activity in castrated rats: wet tissue weights; set-up: species or system rat
Method: as §1

[3] = R-SAT, transfected NIH3T3 cells

Molecule `Cc1c(N2[C@@H]3CC[C@H]2C[C@@H](O)C3)ccc([N+](=O)[O-])c1Cl` [173FBA73bL, endo-8-(3-chloro-2-methyl-4-nitrophenyl)-8-azabicyclo[3.2.1]octan-3-ol] has an Emax (Androgen AR receptor; [3]) of 80% and an EC50 (Androgen AR receptor; R-SAT, transfected NIH3T3 cells, read-out: pEC50 (converted)) of 3.16 nM.

`Cc1c(N2[C@@H]3CC[C@H]2C[C@@](C)(O)C3)ccc(C#N)c1Cl` [198RL26, 2-Chloro-4-(3-endo-hydroxy-3-exo-methyl-8-azabicyclo[3.2.1]oct-8-yl)-3-methylbenzonitrile hydrochloride] was tested, and the EC50 (Androgen AR receptor) was 1.58 nM, the Emax (Androgen AR receptor; [3]) was 79% and the “plasma LH levels” value ([1]; 10 mg/kg p.o. for 14 days) was “complete reversal”. The “plasma LH levels” value ([1]; various doses, p.o. for 14 days) was “dose-dependent suppression of plasma LH levels”, the “wet tissue weights (prostate, seminal vesicle, levator ani muscle)” value ([2]; 3 mg/kg daily s.c. (so in the source) for two weeks, castrated rats) was “did not appear to significantly alter wet tissue weights” and the “dose relative to TP at which negative side effects (increased seminal vesicle and prostate size) become evident” value ([2]; castrated rats, two weeks daily dosing) was “at least 100 × of TP”. The “wet tissue weights (prostate, seminal vesicle, levator ani muscle)” value ([2]; higher doses (3 and 10 mg/kg) daily, castrated rats) was “appeared to significantly increase wet tissue weights, however, not to the extent of TP”.

`Cc1c(N2[C@@H]3CC[C@H]2C[C@@H](O)C3)ccc(C#N)c1Cl` [165RL90, 2-Chloro-4-(3-endo-hydroxy-8-azabicyclo[3.2.1]octan-8-yl)-3-methylbenzonitrile, hydrochloride] showed an EC50 (Androgen AR receptor) of 2 nM and an Emax (Androgen AR receptor; [3]) of 81%.

`CCC(=O)O[C@H]1CC[C@H]2[C@@H]3CCC4=CC(=O)CC[C@]4(C)[C@H]3CC[C@]12C` [testosterone propionate, reference compound] was tested, and the “plasma LH levels” value ([1]; 1 mg/kg, s.c. for 14 days) was “restored LH levels to those obtained in naive rats”, the “prostate wet tissue weight as compared to vehicle treatment” value ([2]; 1 mg/kg daily s.c. for two weeks, castrated rats (FIG. 1)) was “significant increases” and the “seminal vesicle wet tissue weight as compared to vehicle treatment” value ([2]; 1 mg/kg daily s.c. for two weeks, castrated rats (FIG. 2)) was “significant increases”. The “levator ani muscle wet tissue weight as compared to vehicle treatment” value ([2]; 1 mg/kg daily s.c. for two weeks, castrated rats (FIG. 3)) was “significant increases”.
